A word on the IC50: it is the midpoint of a concentration-inhibition curve.

For test [1], the target named is T1, K-Ras G12D (Homo sapiens, UniProt P01116, G12D).
T1 construct: made in house; host or cells: E. coli, e.g. BL21 (DE3)
In words: PPI-HTRF assay, K-Ras G12D / SOS1 interaction. The note with it: HTRF, K-Ras G12D; read-out: PPI-HTRF-5 nM (K-Ras G12D IC50). Format: biochemical. An outline of the steps: (§1)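 HTRF readout: 665/620 nm ratio (ex 337 nm) after ≥10 min incubation. Donor anti-GST-Eu(K) sits on GST-K-Ras (WT, G12D, G12V or G12S) and acceptor anti-6His-XL665 on His-hSOS1. Buffer ~5 mM HEPES pH 7.4, ~150 mM NaCl, ~1 mM DTT, 0.05% BSA, 0.0025% Igepal. Duplicate 6-point dilution, 10–0.01 μM, fitted to IC50.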

The target in test [2] is T2, K-Ras G12S (Homo sapiens, UniProt P01116, G12S).
T2 construct: made in house; host or cells: E. coli, e.g. BL21 (DE3)
T2 sequence (P01116 1-188 isoform P01116-2 G12S): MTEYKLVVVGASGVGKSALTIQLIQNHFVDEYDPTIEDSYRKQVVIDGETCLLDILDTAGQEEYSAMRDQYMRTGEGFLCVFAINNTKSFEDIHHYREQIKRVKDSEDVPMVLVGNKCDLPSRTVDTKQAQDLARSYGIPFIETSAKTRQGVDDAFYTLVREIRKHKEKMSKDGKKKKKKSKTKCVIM
In words: PPI-HTRF assay, K-Ras G12S / SOS1 interaction. The test is classed as biochemical. Particulars: read-out: PPI-HTRF-5 nM (K-Ras G12S IC50). Put shortly: as §1
For orientation: In TR-FRET formats the signal depends on donor and acceptor labels being close together.

Test [3] has as its target T3, K-Ras G12V (Homo sapiens, UniProt P01116, G12V).
T3 construct: made in house; host or cells: E. coli, e.g. BL21 (DE3)
In words: PPI-HTRF assay, K-Ras G12V / SOS1 interaction. Particulars: HTRF, K-Ras G12V; read-out: PPI-HTRF-5 nM (K-Ras G12V IC50). Format: biochemical. Put shortly: as §1

Test [4] concerns the target T4, wildtype K-Ras (Homo sapiens, UniProt P01116).
T4 construct: made in house; host or cells: E. coli, e.g. BL21 (DE3)
In words: PPI-HTRF assay, wildtype K-Ras / SOS1 interaction. The test is classed as biochemical. Particulars: HTRF, K-Ras wt; read-out: PPI-HTRF-5 nM (K-Ras wt IC50). An outline of the steps: as §1

Test [5] deals with GP2D cells. In words: Ras cellular assay, cell proliferation GP2D. Format: cell-based. An outline of the steps: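 Growth inhibition read by CellTiter-Glo luminescence roughly 5 days after compound addition, which followed overnight plating of G12D-mutant GP2D cells (e.g., 800 per well). Compounds were tested as a serial dilution (e.g., 9 points, 3-fold), with IC50 fitted by four-parameter model.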

For test [6], the system named is A549 cells. In words: Ras cellular assay, cell proliferation A549. Particulars: Homo sapiens. The test is classed as cell-based. As for the experimental part: (§2) For example, this assay can be also used to assess selective growth inhibition of a mutant Ras protein relative to a wildtype, or relative to a different mutant Ras protein.
A549 (ATCC CRL-185) and LS123 (ATCC CRL-255) cell lines comprise a G12S mutation and can be used to assess Ras cellular signaling in vitro, e.g., in response to treatment with a compound described herein. A549 culture medium is prepared with RPMI-1640 and 10% heat-inactivated FBS. LS123 culture medium is prepared with RPMI-1640 and 10% heat-inactivated FBS. A CellTiter-Glo (CTG) luminescent based assay (Promega) is used to assess growth of the cells, as a measurement of the ability of the compounds herein to inhibit Ras signaling in the cells. The cells (e.g., 800 per well) are seeded in their respective culture medium in standard tissue culture-treated 384-well format plates (Falcon #08-772-116) or ultra-low attachment surface 384-well format plates (S-Bio #MS-9384WZ). The day after plating, cells are treated with a dilution series (e.g., a 10 point, 3-fold dilution series) of the compounds herein (e.g., approximately 40 μL final volume per well). Cell viability can be monitored (e.g., approximately 6 days later) according to the manufacturer's recommended instructions, where CellTiter-Glo reagent is added (e.g., approximately 10 μL), vigorously mixed, covered, and placed on a plate shaker (e.g., approximately for 20 min) to ensure sufficient cell lysis prior to assessment of luminescent signal. The IC50 values are determined using the four parameter fit. The resulting IC50 value is a measurement of the ability of the test compound to reduce cell growth of Ras-driven cells (e.g., tumor cell lines) in vitro and/or in vivo.

The subject of test [7] is SW620 cells. In words: Ras cellular assay, cell proliferation SW620. Format: cell-based. The note with it: Homo sapiens, SW-620.
Text: as §2

T3 sequence (P01116 1-188 isoform P01116-2 G12V): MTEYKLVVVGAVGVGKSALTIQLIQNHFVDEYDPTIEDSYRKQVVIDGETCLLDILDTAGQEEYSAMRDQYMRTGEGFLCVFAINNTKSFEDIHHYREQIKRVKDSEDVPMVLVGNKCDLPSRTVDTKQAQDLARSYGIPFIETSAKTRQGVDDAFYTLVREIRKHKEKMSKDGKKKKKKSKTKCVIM
T4 sequence (P01116 1-188 isoform P01116-2): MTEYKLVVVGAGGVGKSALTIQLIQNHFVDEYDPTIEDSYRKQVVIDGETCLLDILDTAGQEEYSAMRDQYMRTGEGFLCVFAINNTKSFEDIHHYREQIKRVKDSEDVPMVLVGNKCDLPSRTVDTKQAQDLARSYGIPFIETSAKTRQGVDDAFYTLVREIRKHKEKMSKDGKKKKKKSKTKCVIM
T1 sequence (P01116 1-188 isoform P01116-2 G12D): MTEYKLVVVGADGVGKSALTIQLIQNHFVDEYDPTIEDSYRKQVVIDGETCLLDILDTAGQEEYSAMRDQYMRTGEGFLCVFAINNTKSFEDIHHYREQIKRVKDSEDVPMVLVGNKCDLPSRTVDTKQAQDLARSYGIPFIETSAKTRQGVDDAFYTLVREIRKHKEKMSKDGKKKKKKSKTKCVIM

Regarding `N#Cc1c(N)sc2c(F)ccc(-c3c(Cl)c4c5c(nc(OC[C@@]67CCCN6C[C@H](F)C7)nc5c3F)N3CC[C@@H]3CCO4)c12` [compound 167, 2-amino-4-((12aR)-9-chloro-7-fluoro-5-(((2R,7aS)-2-fluorotetrahydro-1H-pyrrolizin-7a(5H)-yl)methoxy)-1,11,12,12a-tetrahydro-2H-azeto[11,2′:5,6][1,5]oxazocino[4,3,2-de]quinazolin-8-yl)-7-fluorobenzo[b]thiophene-3-carbonitrile], the IC50 in test [1], in test [2], in test [3], in test [4], in test [5] and in test [6] was less than 5 µM each time. In test [7], this compound displayed an IC50 of less than 5 µM.
As for `N#Cc1c(N)sc2c(F)ccc(-c3c(Cl)c4c5c(nc(OCC67CCCN6C[C@H](F)C7)nc5c3F)N3CCCC[C@H]3CO4)c12` (stereo partly drawn) [compound 168, 2-amino-4-((5aS)-3-chloro-1-fluoro-12-(((2R,7aS)-2-fluorohexahydro-1H-pyrrolizin-7a-yl)methoxy)-5,5a,6,7,8,9-hexahydropyrido[2′,1′:3,4][1,4]oxazepino[5,6,7-de]quinazolin-2-yl)-7-fluorobenzo[b]thiophene-3-carbonitrile], the half-maximal inhibitory concentration (IC50) in test [1], in test [2], in test [3], in test [4], in test [5] and in test [6] was less than 5 µM in each case. Moreover, the half-inhibitory concentration (IC50) in test [7] is less than 5 µM.
On to `N#Cc1c(N)sc2c(F)ccc(-c3c(Cl)c4c5c(nc(OC[C@@]67CCCN6C[C@H](F)C7)nc5c3F)N3CCC[C@@H]3CCO4)c12` [compound 143, 2-amino-4-((13aR)-10-chloro-8-fluoro-6-(((2R,7aS)-2-fluorotetrahydro-1H-pyrrolizin-7a(5H)-yl)methoxy)-1,2,3,12,13,13a-hexahydropyrrolo[1′,2′:5,6][1,5]oxazocino [4,3,2-de]quinazolin-9-yl)-7-fluorobenzo[b]thiophene-3-carbonitrile], for which the IC50 in test [1], in test [2], in test [3], in test [4], in test [6] and in test [7] was less than 5 µM throughout.
Regarding `N#CCC1CCN2c3nc(OC[C@@]45CCCN4C[C@H](F)C5)nc4c(F)c(-c5ccc(F)c6sc(N)c(C#N)c56)c(Cl)c(c34)OCC2C1` (single isomer, unassigned) [compound 156], the IC50 in test [1], in test [2], in test [3], in test [4], in test [6] and in test [7] was less than 5 µM throughout.
As for `CN1c2nc(OC[C@@]34CCCN3C[C@H](F)C4)nc3c(F)c(-c4ccc(F)c5sc(N)c(C#N)c45)c(Cl)c(c23)OCC2CCCC21` (stereo partly drawn) [compound 110, 2-amino-4-(6-chloro-4-fluoro-2-(((2R,7aS)-2-fluorotetrahydro-1H-pyrrolizin-7a(5H)-yl)methoxy)-12-methyl-8a,9,10,11,11a,12-hexahydro-8H-cyclopenta[6,7][1,5]oxazocino[4,3,2-de]quinazolin-5-yl)-7-fluorobenzo[b]thiophene-3-carbonitrile], the IC50 is less than 5 µM in test [2]; less than 5 µM in test [3]; less than 5 µM in test [4]; greater than 5 µM in test [5]; greater than 5 µM in test [6]; less than 5 µM in test [7].
As to `N#Cc1c(N)sc2c(F)ccc(-c3c(Cl)c4c5c(nc(OC[C@@]67CCCN6C[C@H](F)C7)nc5c3F)N3CCC(C#N)CC3CO4)c12` (single isomer, unassigned) [compound 105], the IC50 in test [2], in test [3], in test [4], in test [6] and in test [7] was less than 5 µM throughout.

The values are drawn from patent US12059425B2, “Heterocyclic compounds and uses thereof” (Kumquat Biosciences Inc., priority 2022, dated 2024).
